From ChEMBL document CHEMBL1201862, “PubChem BioAssay data set” (2004)
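How tested: cells in 96-well plates exposed to compound for 48 hours at five concentrations. GI50 is the concentration that inhibits growth by half.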 Calls of active or inactive are those of the source. No stated cut-off is given here; in the data, active = GI50 up to about 1.1 µM and inactive = higher.

Legend:
Experiment in all cases: NCI anticancer screen, dose series, 48 h
UO-31 = system: UO-31
OVCAR-4 = system: OVCAR-4
SR = system: SR
HOP-62 = system: HOP-62
NCI-H226 = system: NCI-H226
HL-60 = system: HL-60
SN12C = system: SN12C
SK-MEL-28 = system: SK-MEL-28
TK-10 = system: TK-10
Malme-3M = system: Malme-3M
OVCAR-5 = system: OVCAR-5
SF-539 = system: SF-539
COLO 205 = system: COLO 205
CAKI-1 = system: CAKI-1
Hs-578T = system: Hs-578T
T47D = system: T47D
MCF7 = system: MCF7
PC-3 = system: PC-3
MDA-MB-231 = system: MDA-MB-231

| Structure (SMILES) | GI50 (UO-31) | GI50 (OVCAR-4) | GI50 (SR) | GI50 (HOP-62) | GI50 (NCI-H226) | GI50 (HL-60) | GI50 (SN12C) | GI50 (SK-MEL-28) | GI50 (TK-10) | GI50 (Malme-3M) | GI50 (OVCAR-5) | GI50 (SF-539) | GI50 (COLO 205) | GI50 (CAKI-1) | GI50 (Hs-578T) | GI50 (T47D) | GI50 (MCF7) | GI50 (PC-3) | GI50 (MDA-MB-231) |
| --- | --- | --- | --- | --- | --- | --- | --- | --- | --- | --- | --- | --- | --- | --- | --- | --- | --- | --- | --- |
| COc1ccc([C@H]2[C@@H]3CCc4ccccc4C3=NN2C(N)=S)cc1OC | 36.1 µM (inactive) | 41.4 µM (inactive) | 27 µM (inactive) | 97.7 µM (inactive) | 45.6 µM (inactive) | 22.9 µM (inactive) | > 100 µM (inactive) | 78 µM (inactive) | > 100 µM (inactive) | 85.3 µM (inactive) | > 100 µM (inactive) | > 100 µM (inactive) |  |  |  |  |  |  |  |
| CC/C(CC(=O)CCC(=O)Nc1c(C)cccc1C)=N\NC(=O)NN | > 100 µM (inactive) | > 100 µM (inactive) | > 100 µM (inactive) |  |  | > 100 µM (inactive) | > 100 µM (inactive) | > 10 µM (inactive) | > 100 µM (inactive) | > 100 µM (inactive) | > 100 µM (inactive) | > 100 µM (inactive) | > 100 µM (inactive) |  |  |  |  |  |  |
| COc1ccc(-c2cc3ccccc3[nH]c2=O)cc1OC | > 100 µM (inactive) | > 100 µM (inactive) | > 100 µM (inactive) | > 100 µM (inactive) | > 100 µM (inactive) | > 100 µM (inactive) | > 100 µM (inactive) | > 100 µM (inactive) | > 100 µM (inactive) | > 100 µM (inactive) | > 100 µM (inactive) | > 100 µM (inactive) | > 100 µM (inactive) | > 100 µM (inactive) |  |  |  |  |  |
| N#CC(N)(C(=O)C(=O)NCCCNC(=O)C(=O)C(N)(C#N)c1ccc(Cl)cc1)c1ccc(Cl)cc1 (stereo not given) | > 100 µM (inactive) | > 100 µM (inactive) | > 100 µM (inactive) | > 100 µM (inactive) | > 100 µM (inactive) | 54.7 µM (inactive) | > 100 µM (inactive) | > 100 µM (inactive) | > 100 µM (inactive) | > 100 µM (inactive) | > 100 µM (inactive) | > 100 µM (inactive) | > 100 µM (inactive) | > 100 µM (inactive) |  |  |  |  |  |
| CS/C(c1ccccc1)=[N+](\[O-])Cc1ccccc1 | > 100 µM (inactive) | > 100 µM (inactive) | 20 µM (inactive) | > 100 µM (inactive) | > 100 µM (inactive) | > 100 µM (inactive) | > 100 µM (inactive) | > 100 µM (inactive) | > 100 µM (inactive) | > 100 µM (inactive) | > 100 µM (inactive) | > 100 µM (inactive) | > 100 µM (inactive) | > 100 µM (inactive) |  |  |  |  |  |
| NC(N)=NCCC[C@H](N)C(=O)NCC(=O)N[C@@H](CC(=O)O)c1ncc(NC(=O)C(F)(F)F)o1 | > 25 µM (inactive) | > 25 µM (inactive) |  | > 25 µM (inactive) | > 25 µM (inactive) | > 25 µM (inactive) |  | > 25 µM (inactive) | > 25 µM (inactive) | > 25 µM (inactive) | > 25 µM (inactive) | > 25 µM (inactive) | > 25 µM (inactive) |  | > 25 µM (inactive) | > 25 µM (inactive) | > 25 µM (inactive) | > 25 µM (inactive) |  |
| CN(C)C(=O)Nc1c([N+](=O)[O-])cc(C(F)(F)F)cc1[N+](=O)[O-] | > 100 µM (inactive) | 27.7 µM (inactive) | 58.7 µM (inactive) | > 100 µM (inactive) | > 100 µM (inactive) | 19.4 µM (inactive) | 45.7 µM (inactive) | > 100 µM (inactive) | > 100 µM (inactive) |  | > 100 µM (inactive) | 42 µM (inactive) | 25 µM (inactive) | > 100 µM (inactive) |  |  |  |  |  |
| Cc1ccc(C)c(N2C(=O)C(=O)C(c3nc4ccccc4o3)C(=O)C2=O)c1 | > 100 µM (inactive) | 37.6 µM (inactive) | 28.8 µM (inactive) | > 100 µM (inactive) | > 100 µM (inactive) | 17.3 µM (inactive) | > 100 µM (inactive) | 34 µM (inactive) | > 100 µM (inactive) | 49.2 µM (inactive) |  | > 100 µM (inactive) | 32.9 µM (inactive) | > 100 µM (inactive) |  |  |  |  |  |
| COC(=O)CCC1CCc2c(OC)ccc(O)c2C1=O (stereo not given) | 55.8 µM (inactive) | > 100 µM (inactive) | > 100 µM (inactive) | > 100 µM (inactive) | 28.7 µM (inactive) | > 100 µM (inactive) | > 100 µM (inactive) | > 100 µM (inactive) | > 100 µM (inactive) | > 100 µM (inactive) |  | > 100 µM (inactive) | > 100 µM (inactive) |  |  |  |  |  |  |
| Nc1nc2ncn(CC(O)COC(=O)c3ccccc3)c2c(=O)[nH]1 (stereo not given) | > 100 µM (inactive) | > 100 µM (inactive) | > 100 µM (inactive) | > 100 µM (inactive) | > 100 µM (inactive) | > 100 µM (inactive) | > 100 µM (inactive) | > 100 µM (inactive) | > 100 µM (inactive) | > 100 µM (inactive) | > 100 µM (inactive) | > 100 µM (inactive) | > 100 µM (inactive) | > 100 µM (inactive) |  |  |  |  |  |
| Cc1nc(Cl)nc(Cl)c1C | > 100 µM (inactive) | > 100 µM (inactive) | > 100 µM (inactive) | > 100 µM (inactive) | > 100 µM (inactive) | > 100 µM (inactive) | > 100 µM (inactive) | > 100 µM (inactive) | > 100 µM (inactive) | > 100 µM (inactive) | > 100 µM (inactive) | > 100 µM (inactive) |  |  | > 100 µM (inactive) |  | > 100 µM (inactive) | > 100 µM (inactive) |  |
| CCC1(Cl)C(=O)NC(=O)N(C2CC(O)C(CO)O2)C1N=[N+]=[N-] (stereo not given) | > 100 µM (inactive) | > 100 µM (inactive) |  | > 100 µM (inactive) |  | > 100 µM (inactive) | > 100 µM (inactive) | > 100 µM (inactive) | > 100 µM (inactive) | > 100 µM (inactive) | > 100 µM (inactive) | > 100 µM (inactive) | > 100 µM (inactive) | > 100 µM (inactive) |  |  |  |  |  |
| Cc1cccc(C2SCc3nc4ccccc4n32)c1 (stereo not given) |  | 28.2 µM (inactive) | 17.1 µM (inactive) | 23.6 µM (inactive) | 24.1 µM (inactive) | 6.78 µM (inactive) | 19.5 µM (inactive) | 26.1 µM (inactive) | 21.9 µM (inactive) | 14.7 µM (inactive) | 5.25 µM (inactive) | 33.8 µM (inactive) | > 10 µM (inactive) | 31 µM (inactive) |  |  |  |  |  |
| CC1=COC(C)(C=C(C#N)C#N)CC1 (stereo not given) | > 100 µM (inactive) | > 100 µM (inactive) | 31 µM (inactive) | > 100 µM (inactive) | > 100 µM (inactive) | 21.1 µM (inactive) | 49.9 µM (inactive) | 71 µM (inactive) | > 100 µM (inactive) | > 100 µM (inactive) | > 100 µM (inactive) | 25.1 µM (inactive) | > 100 µM (inactive) |  | 15.4 µM (inactive) | 98.4 µM (inactive) | 36.6 µM (inactive) |  | 67.5 µM (inactive) |
| COc1cc2c(cc1OC)[C@@H](Nc1ccc(F)cc1)C1COC(=O)[C@@H]1C2c1cc(OC)c(O)c(OC)c1 (stereo not given in full) | 2.14 µM (inactive) | 16.7 µM (inactive) | 0.0421 µM (active) | 0.128 µM (active) | 0.231 µM (active) | 0.0982 µM (active) | 1.56 µM (inactive) | 21.9 µM (inactive) | 7.18 µM (inactive) | 3.07 µM (inactive) | 3.33 µM (inactive) | 0.594 µM (active) | 12.5 µM (inactive) | 0.384 µM (active) |  |  |  |  |  |
| Cc1cn(C2CC3C(COCN3O)O2)c(=O)[nH]c1=O (stereo not given) | > 100 µM (inactive) | > 100 µM (inactive) | > 100 µM (inactive) | > 100 µM (inactive) | > 100 µM (inactive) | > 100 µM (inactive) | > 100 µM (inactive) | > 100 µM (inactive) | > 100 µM (inactive) |  | > 100 µM (inactive) | > 100 µM (inactive) | > 100 µM (inactive) |  |  |  |  |  |  |
| CC1=C2C(=O)C3[C@@H](CCC4=CC(=O)CC[C@@]43C)C2CC[C@]12O[C@@H]1C[C@H](C)CN[C@H]1[C@H]2C (stereo not given in full) | 63.7 µM (inactive) | > 100 µM (inactive) | 17.1 µM (inactive) | 16.9 µM (inactive) | 70.5 µM (inactive) | 12.3 µM (inactive) | 36.3 µM (inactive) | 97.1 µM (inactive) | 29.2 µM (inactive) |  |  | 45.4 µM (inactive) | 73.6 µM (inactive) | > 100 µM (inactive) |  |  |  |  |  |
| CCOC(=O)CN(Cc1ccccc1)Cc1c(C(=O)c2ccccc2)c2ccccc2n1C(=O)c1ccccc1 | > 100 µM (inactive) | > 100 µM (inactive) | 41 µM (inactive) | > 100 µM (inactive) | 60 µM (inactive) |  | > 100 µM (inactive) | > 100 µM (inactive) | > 100 µM (inactive) | > 100 µM (inactive) | > 100 µM (inactive) | > 100 µM (inactive) | > 100 µM (inactive) | > 100 µM (inactive) |  |  |  |  |  |
| O=C(NC1=C(Cl)C(=O)c2ccccc2C1=O)C(=O)C(C(=O)c1ccc2ccccc2c1)C1OC(=O)c2ccccc21 (stereo not given) | 13.2 µM (inactive) | 6.97 µM (inactive) | 3.31 µM (inactive) | 5.82 µM (inactive) | 0.986 µM (active) | 2.49 µM (inactive) | 4.36 µM (inactive) | 4.59 µM (inactive) | 25.6 µM (inactive) | 1.7 µM (inactive) | 11.8 µM (inactive) | 2.95 µM (inactive) | 7.4 µM (inactive) | 6.34 µM (inactive) | 6.25 µM (inactive) | 5.35 µM (inactive) | 2.74 µM (inactive) |  |  |
| O=NN(CCCl)C(=O)NCc1ccc[n+]([O-])c1 |  | > 100 µM (inactive) | 33 µM (inactive) | 54 µM (inactive) | > 100 µM (inactive) | 76.4 µM (inactive) | > 100 µM (inactive) | > 100 µM (inactive) | > 100 µM (inactive) | > 100 µM (inactive) | > 100 µM (inactive) | 43.9 µM (inactive) | > 100 µM (inactive) | > 100 µM (inactive) |  |  |  |  |  |
